ChEMBL document CHEMBL2177063, “Iridoid glucosides from Nyctanthes arbortristis result in increased reactive oxygen species and cellular redox homeostasis imbalance in Leishmania parasite” (Eur J Med Chem, 2012)
Active and inactive are the calls of the source. The rule behind the calls is not given here.

Tests used:
[1] = system: J774.A1; test: Cytotoxicity against mouse J774A1 cells at 1 to 100 uM after 48 hrs by MTT assay; assay type: cell-based; settings: j774.a1, 48 h
[2] = Cytotoxicity against human HEK293 cells assessed as cell viability at 100 uM after 48 hrs by MTT assay relative to control; assay type: cell-based; settings: read-out: Activity
[3] = Cytotoxicity against human HEK293 cells assessed as cell viability at 4 uM after 48 hrs by MTT assay relative to control; assay type: cell-based; settings: read-out: Activity
[4] = system: Leishmania donovani; test: Antileishmanial activity against axenic form of Leishmania donovani DD8 after 48 hrs by MTT assay; assay type: functional, organism-based; settings: DD8, 48 h
[5] = system: Leishmania donovani; test: Antileishmanial activity against promastigote form of Leishmania donovani DD8 after 48 hrs by MTT assay; assay type: functional, organism-based; settings: DD8, 48 h
[6] = system: Leishmania donovani; test: Antileishmanial activity against amastigote form of Leishmania donovani DD8 infected in mouse J774A1 cells at 100 uM after 48 hrs by ethidium bromide/acridine orange staining-based fluorescence microscopic analysis; assay type: functional, organism-based; settings: J774.A1
[7] = system: Leishmania donovani; test: Antileishmanial activity against amastigote form of Leishmania donovani DD8 infected in mouse J774A1 cells at 10 uM after 48 hrs by ethidium bromide/acridine orange staining-based fluorescence microscopic analysis; assay type: functional, organism-based; settings: J774.A1
[8] = system: Leishmania donovani; test: Antileishmanial activity against promastigote form of Leishmania donovani DD8 assessed as cell death at 200 uM from 12 to 48 hrs by ethidium bormide/acridine orange staining-based fluorescence microscopic analysis; assay type: functional, organism-based
[9] = system: Leishmania donovani; test: Induction of necrosis in promastigote form of Leishmania donovani DD8 assessed as necrotic cells at 20 uM after 24 hrs by FITC-annexinV/PI-based flow cytometric analysis (reference value: 1.31%); assay type: functional
[10] = system: Leishmania donovani; test: Induction of apoptosis in promastigote form of Leishmania donovani DD8 assessed as late apoptotic cells at 20 uM after 24 hrs by FITC-annexinV/PI-based flow cytometric analysis (reference value: 3.4%); assay type: functional
[11] = system: Leishmania donovani; test: Induction of apoptosis in promastigote form of Leishmania donovani DD8 assessed as early apoptotic cells at 20 uM after 24 hrs by FITC-annexinV/PI-based flow cytometric analysis (reference value: 2.61%); assay type: functional
[12] = system: Leishmania donovani; test: Induction of apoptosis in promastigote form of Leishmania donovani DD8 assessed as viable cells at 20 uM after 24 hrs by FITC-annexinV/PI-based flow cytometric analysis (reference value: 92.68%); assay type: functional
[13] = system: Leishmania donovani; test: Induction of oxidative stress in axenic form of Leishmania donovani DD8 assessed as increase in ROS level at 20 uM by CM-H2DCFDA-based flow cytometric analysis; assay type: functional, organism-based
[14] = system: Leishmania donovani; test: Induction of oxidative stress in promastigote form of Leishmania donovani DD8 assessed as increase in ROS level at 20 uM by CM-H2DCFDA-based flow cytometric analysis; assay type: functional, organism-based
[15] = system: Leishmania donovani; test: Induction of oxidative stress in axenic form of Leishmania donovani DD8 assessed as change in cell surface topology at 20 uM by CM-H2DCFDA-based flow cytometric analysis; assay type: functional, organism-based
[16] = system: Leishmania donovani; test: Induction of oxidative stress in promastigote form of Leishmania donovani DD8 assessed as change in cell surface topology at 20 uM by CM-H2DCFDA-based flow cytometric analysis; assay type: functional, organism-based
[17] = system: Leishmania donovani; test: Induction of oxidative stress in amastigote form of Leishmania donovani DD8 assessed as increase in ROS level at 5 to 20 uM up to 48 hrs by CM-H2DCFDA-based fluorimetric analysis; assay type: functional, organism-based
[18] = system: Leishmania donovani; test: Induction of oxidative stress in promastigote form of Leishmania donovani DD8 assessed as increase in ROS level at 5 to 20 uM up to 48 hrs by CM-H2DCFDA-based fluorimetric analysis; assay type: functional, organism-based
[19] = target: Trypanothione reductase (Leishmania donovani) (UniProt P39050); test: Inhibition of Leishmania donovani DD8 axenic form trypanothione reductase assessed as decrease in reduced thiol level at 100 uM after 48 hrs by DTNB-based spectrophotometric analysis relative to control
[20] = target: Trypanothione reductase (Leishmania donovani) (UniProt P39050); test: Inhibition of Leishmania donovani DD8 axenic form trypanothione reductase assessed as decrease in reduced thiol level at 100 uM after 12 hrs by DTNB-based spectrophotometric analysis relative to control
[21] = target: Trypanothione reductase (Leishmania donovani) (UniProt P39050); test: Inhibition of Leishmania donovani DD8 axenic form trypanothione reductase assessed as decrease in reduced thiol level at 3.125 uM after 48 hrs by DTNB-based spectrophotometric analysis relative to control
[22] = target: Trypanothione reductase (Leishmania donovani) (UniProt P39050); test: Inhibition of Leishmania donovani DD8 axenic form trypanothione reductase assessed as decrease in reduced thiol level at 3.125 uM after 12 hrs by DTNB-based spectrophotometric analysis relative to control
[23] = target: Trypanothione reductase (Leishmania donovani) (UniProt P39050); test: Inhibition of Leishmania donovani DD8 promastigote form trypanothione reductase assessed as decrease in reduced thiol level at 100 uM after 48 hrs by DTNB-based spectrophotometric analysis relative to control
[24] = target: Trypanothione reductase (Leishmania donovani) (UniProt P39050); test: Inhibition of Leishmania donovani DD8 promastigote form trypanothione reductase assessed as decrease in reduced thiol level at 100 uM after 12 hrs by DTNB-based spectrophotometric analysis relative to control
[25] = target: Trypanothione reductase (Leishmania donovani) (UniProt P39050); test: Inhibition of Leishmania donovani DD8 promastigote form trypanothione reductase assessed as decrease in reduced thiol level at 3.125 uM after 48 hrs by DTNB-based spectrophotometric analysis relative to control
[26] = target: Trypanothione reductase (Leishmania donovani) (UniProt P39050); test: Inhibition of Leishmania donovani DD8 promastigote form trypanothione reductase assessed as decrease in reduced thiol level at 3.125 uM after 12 hrs by DTNB-based spectrophotometric analysis relative to control

Sequence of Trypanothione reductase (Leishmania donovani) (P39050 whole entry): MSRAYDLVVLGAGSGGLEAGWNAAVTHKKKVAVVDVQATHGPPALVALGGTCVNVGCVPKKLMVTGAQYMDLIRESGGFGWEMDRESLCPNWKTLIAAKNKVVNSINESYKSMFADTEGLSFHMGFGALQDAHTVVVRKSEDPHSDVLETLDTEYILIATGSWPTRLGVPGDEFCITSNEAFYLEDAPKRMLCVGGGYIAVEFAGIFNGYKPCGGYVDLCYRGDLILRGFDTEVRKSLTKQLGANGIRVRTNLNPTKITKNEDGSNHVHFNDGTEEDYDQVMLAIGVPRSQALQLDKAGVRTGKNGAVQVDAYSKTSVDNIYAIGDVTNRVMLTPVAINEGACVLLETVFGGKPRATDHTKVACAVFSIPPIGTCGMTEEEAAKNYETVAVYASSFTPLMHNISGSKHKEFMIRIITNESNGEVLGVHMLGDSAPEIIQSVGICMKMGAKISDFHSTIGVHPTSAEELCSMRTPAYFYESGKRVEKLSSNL

| inhibition [19] [%] | inhibition [20] [%] | Structure (SMILES) | Activity [1] | viability at 48 h, 100 µM [2] [%] | viability at 48 h, 4 µM [3] [%] | IC50 [4] [µM] | IC50 [5] [µM] | Activity [6] | Activity [7] | Activity [8] | Activity [9] [%] | Activity [10] [%] | Activity [11] [%] | Activity [12] [%] | Activity [13] | Activity [14] | Activity [15] | Activity [16] | Activity [17] | Activity [18] | also measured |
| --- | --- | --- | --- | --- | --- | --- | --- | --- | --- | --- | --- | --- | --- | --- | --- | --- | --- | --- | --- | --- | --- |
| 41.9 | 65.8 | COC(=O)C1=CO[C@@H](O[C@@H]2O[C@H](CO)[C@@H](O)[C@H](O)[C@H]2O)[C@@H]2[C@@H](C)[C@@H](OC(=O)/C=C/c3ccc(OC)cc3)[C@@H](O)[C@H]12 [ARBORTRISTOSIDE A] | Non-toxic | 71.2 | 95.5 | 7.26 | 3.26 | Active | Active | Active | 10.33 | 2.13 | 26.3 | 61.24 | Active | Active | Active | Active | Active | Active | inhibition [21]: 73.4%; inhibition [22]: 97.9%; inhibition [23]: 33.8%; inhibition [24]: 60.1%; inhibition [25]: 63.7%; inhibition [26]: 92.5% |
| 46.9 | 67.9 | COC(=O)C1=CO[C@@H](O[C@@H]2O[C@H](CO)[C@@H](O)[C@H](O)[C@H]2O)[C@@H]2[C@@H](CO)[C@@H](OC(=O)/C=C/c3ccc(O)c(O)c3)[C@@H](O)[C@H]12 [ARBORTRISTOSIDE B] | Non-toxic | 54.8 | 93.6 | 7.63 | 3.5 | Active | Active | Active | 13.52 | 2.96 | 31.04 | 52.48 | Active | Active | Active | Active | Active | Active | inhibition [21]: 77.5%; inhibition [22]: 96.9%; inhibition [23]: 41.9%; inhibition [24]: 63.6%; inhibition [25]: 67.9%; inhibition [26]: 92.6% |
| 51.7 | 67.8 | COC(=O)C1=CO[C@@H](O[C@@H]2O[C@H](CO)[C@@H](O)[C@H](O)[C@H]2O)[C@@H]2[C@@H](C)[C@@H](OC(=O)/C=C/c3ccc(O)cc3)[C@@H](O)[C@H]12 [ARBORTRISTOSIDE C] | Non-toxic | 48.6 | 89.6 | 9 | 5.02 | Active | Active | Active | 10 | 2.51 | 36.59 | 50.9 | Active | Active | Active | Active | Active | Active | inhibition [21]: 82.8%; inhibition [22]: 97.7%; inhibition [23]: 46.9%; inhibition [24]: 62.7%; inhibition [25]: 78.9%; inhibition [26]: 95.3% |
